Assay results: patent EP0741709B1, “AROMATIC 2-AMINO-IMIDAZOLE DERIVATIVES AS ALPHA-2A ADRENOCEPTOR AGONISTS” (Allergan Sales, Inc., priority 1994, dated 1995)

Biological target: T1, human α2C (Homo sapiens, UniProt P18825)
T1 construct: expressed in transfected cells; host or cells: CHO (CHO-C4)
T1 sequence (P18825 1-462): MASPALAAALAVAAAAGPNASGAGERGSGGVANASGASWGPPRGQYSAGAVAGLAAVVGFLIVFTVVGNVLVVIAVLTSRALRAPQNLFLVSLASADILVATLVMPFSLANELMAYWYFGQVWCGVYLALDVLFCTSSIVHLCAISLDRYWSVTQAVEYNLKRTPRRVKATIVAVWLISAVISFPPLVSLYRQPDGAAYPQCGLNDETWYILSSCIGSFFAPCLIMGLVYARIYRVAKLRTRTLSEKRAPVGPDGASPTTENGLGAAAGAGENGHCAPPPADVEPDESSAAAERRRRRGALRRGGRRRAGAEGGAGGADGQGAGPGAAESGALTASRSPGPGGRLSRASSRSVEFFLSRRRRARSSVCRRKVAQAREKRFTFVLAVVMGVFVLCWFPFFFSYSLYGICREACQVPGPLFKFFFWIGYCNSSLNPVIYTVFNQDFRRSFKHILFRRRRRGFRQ
Assay: Receptor binding assay, [3H]rauwolscine, CHO-C4 cell membranes
Details: 22°C, 30 minutes
Description: Cell preparation: Chinese hamster ovary (CHO) cells expressing the human α2A and human α2C (CHO-C10 and CHO-C4 respectively) receptors and CHO cells (CHO-RNG) expressing the rat α2B adrenoceptor were grown to near confluence in Dulbecco's modified Eagle's medium supplemented with 10% fetal bovine serum using standard cell culture methods. Cells were harvested by scraping and placed into cold buffer of the following composition: 50 mM Tris-HCl, 5 mM EDTA, pH 7.4). Cells were then homogenized with a Polytron homogenizer for 2 X 10 sec at setting #7, and centrifuged for 20 minutes at 49,000 x g. The pellet fraction was washed (resuspended in Tris-HCl, pH 8 buffer and centrifuged for 15-20 minutes at 49,000 x g) 2 times and stored at -100°C until binding assay.
Binding Studies: The radioligands [^3H]rauwolscine (specific activity 80 Ci/mmol) and [^3H]prazosin (specific activity 76 Ci/mmol) were obtained from New England Nuclear, Boston, MA. Frozen membrane pellet was resuspended in 25 mM glycine/glycine, pH 7.5 and incubated with radioligand under the following conditions: CHO-C10, CHO-RNG, CHO-C4-[^3H]rauwolscine, 22°C, 30 minutes; RKC-[^3H]rauwolscine, 0°C, 120 minutes; and, HCC-[^3H]prazosin, 22°C, 30 minutes in a final volume of 500 ul. At the end of the incubation period, the samples were filtered through glass filters (Whatman GF/B) in a 96 well cell harvester and rapidly washed four times with 4 mL of iced-cold 50 mM Tris-HCl buffer. The filters were then oven dried and transferred to scintillation vials containing 10 mL of Beckman's Ready Protein® scintillation cocktail for counting. Specific binding defined by 10 uM phentolamine for competition studies were as follows: 2.4 nM [^3H]brimonidine-RbICB 62%; 2.4 nM [^3H]rauwolscine-RbICB 75%; 2 nM [^3H]rauwolscine-RbKc 88%; 0.3 nM [^3H] rauwolscine-CHO-C10 99%; 0.4 nM [^3H]rauwolscine-CHO-RNG 99%, 0.3 nM [^3H]prazosin 87%; and 1 nM [^3H]rauwolscine-CHO-C4 90%. Protein concentrations were determined with a protein assay kit from Bio Rad. Binding isotherms, equilibrium dissociation and affinity constants were analyzed and determined by the non-linear least squares curve fitting programs EBDA (BioSoft) or AccuFit Competition/Saturation by Beckman.
The radioligands [^3H)rauwolscine (specific activity 80 Ci/mmol) and [^3H]prazosin (specific activity 76 Ci/mmol) were obtained from New England Nuclear, Boston, MA. Frozen membrane pellet was resuspended in 25 mM glycine/glycine, pH 7.4 and incubated with radioligand under the following conditions: CHO-C10, CHO-RNG, CHO-C4-[^3H]rauwolscine, 22°C, 30 min.; and, HCC-[^3H]prazosin, 22°C, 30 minutes in a final volume of 500 ul. At the end of the incubation period, the samples were filtered through glass fiber filters (Whatman GF/B) in a 96 well cell harvester and rapidly washed four times with 4 mL of iced-cold 50 mM Tris-CHl buffer. The filters were then oven dried and transferred to scintillation vials containing 5 mL of Beckman's Ready Protein® scintillation cocktail for counting. Specific binding defined by 10 uM phentolamine for competition studies were as follows: 0.3 nM[^3H] rauwolscine-CHO-C10 99%; 0.4 nM [^3H]rauwolscine-CHO-RNG 99%, and 0.3 nM [^3H] prazosin-HCC 87%. Protein concentrations were determined with a protein assay kit from Bio Rad. Binding isotherms, equilibrium dissociation and affinity constants were analyzed and determined by the non-linear least squares curve fitting programs AccuFit Competition/Saturation by Beckman.

Row | SMILES | Ki [nM]
1 | Clc1cccc(Cl)c1Nc1ncc[nH]1 | 1120
2 | COc1ccc(Nc2ncc[nH]2)c(C)c1 | 512
3 | Cc1c(Nc2ncc[nH]2)ccc2c1NCCO2 | 229
4 | c1cc2c(c(Nc3ncc[nH]3)c1)CCCC2 | 252
5 | c1ccc(Nc2ncc[nH]2)cc1 | 3240
6 | Cc1c(Nc2ncc[nH]2)ccc2c1OCCO2 | 19
7 | Brc1c(Nc2ncc[nH]2)ccc2nccnc12 | 9670

Results, then the compound that gave them:

Row | Ki [nM] | SMILES
8 | 577 | Cc1ccccc1Nc1ncc[nH]1
9 | 2250 | Clc1ccccc1Nc1ncc[nH]1
10 | 2390 | Brc1ccccc1Nc1ncc[nH]1
